From PubChem BioAssay (NCI)
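How tested: cells in 96-well plates exposed to compound for 48 hours at five concentrations. The concentration for 50% growth inhibition is given as GI50. At the TGI there is no net growth.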

What was measured:
Experiment in all cases: NCI-60 cell line screen, 48 h
[1] = tested on: TK-10 renal
[2] = tested on: SN12C renal
[3] = tested on: HT29 colon
[4] = tested on: NCI-H23 lung
[5] = tested on: HL-60(TB) leukemia
[6] = tested on: HCT-15 colon
[7] = tested on: MALME-3M melanoma
[8] = tested on: RPMI-8226 leukemia
[9] = tested on: SK-OV-3 ovarian
[10] = tested on: MDA-MB-435

Compound | TGI [1] | TGI [2] | TGI [3] | TGI [4] | TGI [5] | TGI [6] | TGI [7] | TGI [8] | TGI [9] | TGI [10] | GI50 [2] | GI50 [4] | GI50 [5] | GI50 [6] | GI50 [7] | GI50 [8] | GI50 [9] | GI50 [3] | GI50 [10]
Cc1cc(N(CCC#N)CCC#N)ccc1CC1N=C(c2ccccc2)OC1=O (stereo not given) | > 100 µM | > 100 µM | > 100 µM | > 100 µM | > 100 µM | > 100 µM | > 100 µM | > 100 µM | > 100 µM |  |  |  |  |  |  |  |  |  | 
CN(CCCCN)c1ccc2c(=O)[nH][nH]c(=O)c2c1 | > 100 µM | > 100 µM | > 100 µM | 5.1 µM | > 100 µM | > 100 µM | > 100 µM | > 100 µM | > 100 µM |  |  |  |  |  |  |  |  |  | 
COc1cc(CC2C(=O)OCC2[C@@H](OC(C)=O)c2ccc3c(c2)OCO3)c(Br)c(OC)c1OC (stereo not given in full) | > 100 µM | > 100 µM | > 100 µM | > 100 µM | > 100 µM | > 100 µM | > 100 µM |  | > 100 µM |  |  |  |  |  |  |  |  |  | 
CSCC(COC(C)=O)(CSC)c1ccncc1 | > 100 µM | > 100 µM | > 100 µM | > 100 µM | > 100 µM | > 100 µM | > 100 µM | > 100 µM | > 100 µM |  |  |  |  |  |  |  |  |  | 
NNC(=S)NN/C=C(\C=Nc1ccccc1)[N+](=O)[O-] | > 100 µM | > 100 µM | > 100 µM | > 100 µM | > 100 µM |  | > 100 µM | > 100 µM | > 100 µM |  |  |  |  |  |  |  |  |  | 
COc1cc(=O)oc(/C=C/CO)c1C | > 100 µM | > 100 µM | > 100 µM | > 100 µM | > 100 µM |  | > 100 µM |  | > 100 µM |  |  |  |  |  |  |  |  |  | 
COC(=O)C1=Cc2cn(S(=O)(=O)c3ccc(C)cc3)c3cccc(c23)C(C=C(C)C)N1C(C)=O (stereo not given) | > 100 µM | > 100 µM | > 100 µM | > 100 µM | 41.2 µM |  | 64.6 µM |  | > 100 µM |  |  |  |  |  |  |  |  |  | 
C=CCn1c(=O)c(C(=O)NC(=O)OCC)cn(C2CCCCC2)c1=O | > 100 µM | > 100 µM | > 100 µM | > 100 µM | > 100 µM | > 100 µM | > 100 µM | > 100 µM | > 100 µM |  |  |  |  |  |  |  |  |  | 
Cc1cc(C)c(C2=NO[C@@H]3C(=O)N(c4ccc(Cc5ccc(N6C(=O)[C@H]7C(c8c(C)cc(C)cc8C)=NO[C@H]7C6=O)cc5)cc4)C(=O)[C@H]23)c(C)c1 | > 100 µM | > 100 µM | > 100 µM | > 100 µM | > 100 µM | > 100 µM | > 100 µM | > 100 µM | > 100 µM |  |  |  |  |  |  |  |  |  | 
COc1ccc(N2C(=O)C3C=CC(n4[nH]c(=O)n(Cc5ccccc5)c4=O)CC3C2=O)cc1 (stereo not given) | > 100 µM | > 100 µM | > 100 µM | > 100 µM | > 100 µM | > 100 µM | > 100 µM | > 100 µM | > 100 µM |  |  |  |  |  |  |  |  |  | 
O=c1[nH]c(-c2ccc([N+](=O)[O-])cc2)nc2ccc(Cl)cc12 | > 100 µM | > 100 µM | > 100 µM | > 100 µM |  | > 100 µM | > 100 µM | > 100 µM | > 100 µM |  |  |  |  |  |  |  |  |  | 
CC(O)c1ccc(C(O)/C(=N\NC(=O)c2ccncc2)c2nc3ccc([N+](=O)[O-])cc3[nH]c2=O)cc1 (stereo not given) |  | > 100 µM | > 100 µM | > 100 µM | > 100 µM | > 100 µM | > 100 µM | > 100 µM | > 100 µM |  |  |  |  |  |  |  |  |  | 
Cc1cc(Cl)ccc1Nc1nc2c(s1)C(=O)c1ccccc1C2=O | 33.4 µM | 3.33 µM | 54.6 µM | 3.96 µM | 2.68 µM | 3.68 µM | 2.92 µM | 11.1 µM | 26.1 µM |  |  |  |  |  |  |  |  |  | 
COC(=O)Cc1nn2c(nc1=O)sc1ccc3ccccc3c12 |  | > 100 µM | > 100 µM | > 100 µM | > 100 µM | > 100 µM | > 100 µM |  | > 100 µM |  |  |  |  |  |  |  |  |  | 
O=C1NC2OC(CO)C(O)C(O)C2O1 (stereo not given) | > 100 µM | > 100 µM | > 100 µM | > 100 µM | > 100 µM | > 100 µM | > 100 µM |  | > 100 µM |  |  |  |  |  |  |  |  |  | 
CN1c2ccccc2S(=O)(=O)n2c(COc3ccccc3)nnc21 | > 100 µM | > 100 µM | > 100 µM | > 100 µM | > 100 µM | > 100 µM |  |  | > 100 µM | > 100 µM |  |  |  |  |  |  |  |  | 
CCOC(=O)Cn1c(=O)[nH]c(=O)c2[nH]cnc21 | > 100 µM | > 100 µM | > 100 µM | > 100 µM | > 100 µM | > 100 µM | > 100 µM |  | > 100 µM |  |  |  |  |  |  |  |  |  | 
COc1ccc(C2NC3=C(CCCC3)N2)cc1 | > 100 µM | > 100 µM | > 100 µM | > 100 µM | 66 µM | > 100 µM | > 100 µM | > 100 µM | > 100 µM |  |  |  |  |  |  |  |  |  | 
Cc1ccc(S(=O)(=O)OC2CSSCC2OS(=O)(=O)c2ccc(C)cc2)cc1 (stereo not given) | 28.9 µM | 24 µM | 22 µM | 33.3 µM | 22 µM | 22.5 µM | 34.3 µM | 46.3 µM | 38.4 µM |  |  |  |  |  |  |  |  |  | 
N/C(=N/N=C/c1cccc(F)c1)NO | > 100 µM | > 100 µM | > 100 µM | > 100 µM | 93.5 µM | > 100 µM | > 100 µM | > 100 µM | > 100 µM |  |  |  |  |  |  |  |  |  | 
C1C[S][Ge]2([S]CCS1)[S]CCSCC[S]2 |  | > 100 µM |  | > 100 µM | > 100 µM | > 100 µM | > 100 µM | > 100 µM | > 100 µM |  | > 100 µM | > 100 µM | > 100 µM | > 100 µM | > 100 µM | > 100 µM | > 100 µM |  | 
COc1cc(CC(=O)c2cc3c(cc2-c2ccccc2)OCO3)cc(OC)c1OC | > 100 µM | > 100 µM | > 100 µM | > 100 µM | > 100 µM | > 100 µM | > 100 µM |  | > 100 µM |  |  |  |  |  |  |  |  |  | 
O=[N+]([O-])c1cccc([I+]c2ccccc2)c1 |  | 22.8 µM | 31.2 µM | 31.2 µM | 41.2 µM | 30.1 µM |  | 30.7 µM | 27.5 µM | 29.2 µM | 10.4 µM | 10.9 µM | 4.93 µM | 5.35 µM |  | 4.09 µM | 13.8 µM | 11.9 µM | 11.6 µM
